# Columns and labels:
# [1] = method code SF-AS, from KuchaÅ™, M.; Rejholec, V.; Miller, V. (1985). Chromatographically determined lipophilicity and intramolecular interactions of bioactive compounds. Pharmacochemistry Library, 8, 321-331.; conditions: pH 3.4
# [2] = method code SF-MS, from DOI: 10.1016/j.fluid.2014.01.017; conditions: pH 7.6
# [3] = method code SF-AS, from DOI: 10.1016/0378-5173(80)90117-9
# [4] = method code SF-HPLC, from DOI: 10.1016/s0021-9673(01)83534-2
# [5] = not given; remark: listed apart in the source
# [6] = method code SF-HPLC, from DOI: 10.1002/jat.2550130210, PMID: 8486911; conditions: pH 13.0
# [7] = method code SF-GLC, from DOI: 10.1002/jps.2600600712, PMID: 4398902
# [8] = method code SF, from PMID: 2704; conditions: pH 1.0
# [9] = not given; remark: listed apart in the source
# [10] = not given; remark: listed apart in the source
# [11] = method code SF-CR, from DOI: 10.1248/cpb.21.2417, PMID: 4779830; conditions: pH 6.0
# [12] = method code SF-AS, from Holmes, L.; Lough, E. (1976). Effect of Intramolecular Hydrogen Bonding on Partition Coefficients [Technical Note]. Defence Research Establishment Suffield.
# [13] = not given; remark: listed apart in the source
# [14] = not given; remark: listed apart in the source
# [15] = from Rich, R. (1990). Partition coefficients of quinones and their relation to biochemical reactivity. In Lenaz, G. (Ed.), Highlights in Ubiquinone Research: Proceedings of the International Symposium, …
# [16] = not given; remark: listed apart in the source
# [17] = method code SF, from DOI: 10.1002/ps.2780340212; conditions: pH 7.0
# [18] = not given; remark: listed apart in the source
# [19] = method code SF, from DOI: 10.1016/j.tca.2004.05.019
# [20] = not given; remark: listed apart in the source
# [21] = method code SF, from Brown, J.; Yu, N.; Cory, M.; Bicknell, R.; Taylor, D. (1978). In vivo evaluation of the radiosensitizing and cytotoxic properties of newly synthesized electron-affinic drugs. 3, 206-211.
# [22] = not given; remark: listed apart in the source
# [23] = method code SF-AS, from DOI: 10.1021/jm00299a013, PMID: 5458368
# [24] = not given; remark: listed apart in the source
# [25] = method code SF-HPLC, from DOI: 10.1002/jps.2600780218, PMID: 2715940; conditions: pH 7.4
# [26] = method code SF-AS, from DOI: 10.1248/cpb.36.1393
# [27] = method code SF-AS, from DOI: 10.1111/j.1440-1681.1976.tb00621.x, PMID: 10116
# [28] = method code SF-HPLC, from DOI: 10.1002/ps.2780190203; conditions: pH 1.0
# [29] = not given; remark: listed apart in the source
# [30] = method code SF-AS, from DOI: 10.1016/0009-2797(77)90097-7, PMID: 407012; conditions: pH 7.0
# [31] = not given; remark: listed apart in the source
# [32] = method code SF-RC, from DOI: 10.1002/ps.2780300102; conditions: pH 1.0
# [33] = method code SF-RC, from DOI: 10.1021/jm201482p, PMID: 22339166; conditions: pH 6.8
# [34] = method code SF-AS, from DOI: 10.1248/cpb.35.377
# [35] = from Bazaco, J.; Coca, C. (1989). Relation between the partition coefficient (Log Pow) and capacity factor (Log k') derived from reversed-phase HPLC of a series of benzaldehyde derivatives. Ciencia e …
# [36] = method code SF-HPLC, from DOI: 10.1002/jps.2600831027, PMID: 7884677; conditions: pH 2.0
# [37] = method code SF-HPLC, from DOI: 10.1016/s0021-9673(01)81976-2, PMID: 4066822
# [38] = method code SF-RC, from DOI: 10.1111/j.2042-7158.1987.tb06949.x, PMID: 2882008; conditions: pH 1.0
# [39] = not given; remark: listed apart in the source
smiles,measurement,setting,value
CC(O)(C(=O)O)c1ccccc1 (centres undefined),logD,[1],0.83
CCCCC/C=C\C=O,logD,[2],2.38
COc1ccc(O)cc1,logP,[3],1.57
COC(=O)c1cc([N+](=O)[O-])cc([N+](=O)[O-])c1,logP,[4],1.84
Cc1ncc(CNC(=O)N(CCCl)N=O)c(N)n1,logP,,0.39
CCc1ccc(C(=O)O)cc1,logP,[5],2.85
CCCCCC(C)(C)N,logD,[6],2.19
O=C(O)CCCC(=O)c1ccccc1,logD,[1],1.49
O=C1CCCCCCN1,logP,[7],0.24
CC(C)=NNc1ccc([N+](=O)[O-])cc1[N+](=O)[O-],logP,[4],3.05
COC(=O)COc1ccccc1C,logD,[8],2.08
S=C=Nc1cccc2c(N=C=S)cccc12,logP,[9],4.43
CCCOC(=O)c1ccccc1,logP,[10],3.23
CN(c1ccccn1)S(=O)(=O)c1ccc(N)cc1,logD,[11],1.3
CCC(=O)c1ccccc1O,logP,[12],2.54
O=[N+]([O-])c1ccc(Oc2c(Cl)cc(Cl)cc2Cl)cc1,logP,[13],4.97
COCCCNc1nc(NC(C)C)nc(SC)n1,logP,[14],2.96
CCCCc1ccc(O)cc1,logP,[3],3.65
CC1=C(C)C(=O)C=CC1=O,logP,[15],1.23
COCCc1ccc(O)cc1,logP,[16],1.85
CS(=O)(=O)c1cccc(NC(N)=O)c1,logD,[17],-0.1
O=C(O)CNC(=O)c1ccccc1I,logP,[18],1.08
Cc1ssc(=S)c1CCC(=O)O,logP,[19],2.04
CON(C)C(=O)Nc1ccc(Cl)c(Cl)c1,logP,[20],3
CCS(=O)(=O)CCn1ccnc1[N+](=O)[O-],logP,[21],-0.58
N#CCc1ccccc1,logP,[22],1.47
Cc1ncc([N+](=O)[O-])n1CCS(=O)(=O)C(C)C,logP,[23],0.13
CN1CC(O)N(c2nnc(C(C)(C)C)s2)C1=O (centres undefined),logP,[20],1.45
O=C1CCCCCCCN1,logP,[7],0.67
CN(C)S(=O)(=O)c1ccc(N)cc1,logD,[11],0.67
CCOCC(O)Cn1ccnc1[N+](=O)[O-] (centres undefined),logP,[24],-0.07
CCCCCCCCN,logD,[6],3.3
CC(=O)N(C)c1ccc([N+](=O)[O-])cc1,logD,[25],0.91
O=Cc1ssc(=S)c1CCC(=O)O,logP,[19],2.73
[O-][n+]1ccc(Nc2ccc(O)cc2)c2ccc(Cl)cc21,logD,[26]; pH 2.8,1.23
CCC(Cl)(CC)C(=O)NC(N)=O,logP,[27],1.4
O=C(O)COc1ccc(Oc2ccc(Cl)cc2Cl)cc1,logD,[28],4.51
CCn1ccc(=O)c(O)c1,logP,[29],-0.4
O=C(O)COc1cc(Cl)cc(Cl)c1,logD,[28],2.84
Oc1ccc(CCOCC2CC2)cc1,logP,[16],3
CCCCc1c(C)[nH]c(NCC)nc1=O,logD,[17],2.2
O=C(O)CCc1ccc(I)cc1,logP,[18],2.81
O=C1OC(=O)c2c(Cl)c(Cl)c(Cl)c(Cl)c21,logP,[13],3.09
CN(C)c1nc(Cl)nc(N(C)C)n1,logD,[30],2.31
CON=C(C#N)C(=O)N[C@@H](CSC)C(=O)O,logP,[31],0.52
Clc1ccc2c(Cl)ccnc2c1,logD,[26]; pH 7.4,3.57
O=C(O)Cc1ccc(Cl)cc1,logD,[32],2.2
O=c1[nH]c(=O)n([C@H]2CC(F)[C@@H](CO)O2)cc1I (some centres undefined),logD,[33],-0.03
Oc1ccc2ccccc2c1,logP,[34],2.75
CCCCn1ccc(=O)c(O)c1,logP,[29],0.72
COc1ccc(C=O)cc1OC,logP,[35],1.22
CC(=O)c1ccccc1,logP,[22],1.71
N#CCc1ccc(C(=O)O)cc1,logD,[36],1.18
CCC(CC)(OC)C(=O)NC(N)=O,logP,[27],0.96
CCCCCC/C=C/C=O,logD,[2],3.11
COc1cccc(C=O)c1,logP,[35],1.71
COCC(=O)Cn1ccnc1[N+](=O)[O-],logP,[21],-0.26
CN(CO)c1nc(N(C)CO)nc(N(C)CO)n1,logD,[30],0.4
COc1c(O)ccc(O)c1OC,logP,[15],0.61
NC(=O)Cc1ccc(C(=O)O)cc1,logD,[36],0.3
COC1=CC(=O)C(OC)=C(OC)C1=O,logP,[37],0.22
S=C=Nc1ccc(N=C=S)cc1,logP,[9],2.8
C/C=C/OCC(O)Cn1ccnc1[N+](=O)[O-] (centres undefined),logP,[24],0.28
CSc1nc(N=[N+]=[N-])nc(NC(C)C)n1,logP,[14],3.27
CON=C(C#N)C(=O)N[C@@H](CS(C)(=O)=O)C(=O)O,logP,[31],-0.73
CC(=O)Nc1ccc(C#N)cc1,logD,[25],1.36
CS(=O)(=O)c1ccc(CC(=O)O)cc1,logD,[32],0.06
O=C(O)Cc1cccc(I)c1,logD,[38],2.49
Cc1ncc([N+](=O)[O-])n1CCS(C)(=O)=O,logP,[23],-0.82
CC(C)(C)c1cc(C(C)(C)C)c2c(c1F)CO[P@@](=O)(OC[C@H]1O[C@@H](n3cc(I)c(=O)[nH]c3=O)C[C@@H]1O)O2,logD,[33],2.23
OCc1cc(Cl)cc(Cl)c1,logP,[34],2.9
CCC(=O)c1ccc(O)cc1,logP,[12],2.03
O=C(O)Cc1ccc(Cl)c(Cl)c1,logP,[39],2.9
COC1=C(OC)C(=O)C(OC)=C(OC)C1=O,logP,[37],0.41
CC(=O)Nc1ccc(C(=O)O)c(O)c1,logD,[38],1.62
Cc1ccccc1OCC(=O)O,logD,[8],1.96
O=C(O)Cn1c(=O)sc2cccc(Cl)c21,logP,[39],2.21
COc1cccc(C(=O)O)c1OC,logP,[10],1.94
CC(C)c1ccc(C(=O)O)cc1,logP,[5],3.24
